Data on one compound can be found in ChEMBL document CHEMBL4842345, “Design, synthesis and biological evaluation of tanshinone IIA-based analogues: Potent inhibitors of microtubule formation and angiogenesis” (Eur J Med Chem, 2021).

As a reminder, the IC50 is the concentration needed to halve the response being measured.

One experiment has as its system HepG2. The experiment is described as follows: Antiproliferative activity against human HepG2 cells assessed as reduction in cell viability measured after 72 hrs by MTT assay. The format is functional, cell-based. The conditions noted are these: HepG2, 72 h. Background: Formazan colour is commonly taken as a measure of viable cells.
A further experiment has as its system U-937. The experiment is described as follows: Antiproliferative activity against human U-937 cells assessed as reduction in cell viability measured after 72 hrs by MTT assay. The format is functional, cell-based. The conditions noted are these: U-937, 72 h.
Experiment [1] addresses T1, Tubulin (Homo sapiens) (UniProt P68371+Q9H4B7+P0DPH7+P68366+Q13509+Q71U36+P04350+Q3ZCM7+P07437+P68363+Q9BQE3+Q6PEY2+Q13885+Q9BVA1+Q9BUF5). Nature of the experiment: Inhibition of tubulin (unknown origin) polymerization assessed as decrease in fluorescence intensity at 12 uM by fluorescence based assay. The format is protein-complex assay.
Experiment [2] deals with A549. Nature of the experiment: Induction of apoptosis in human A549 cells assessed as late apoptotic cells at 2.5 uM measured after 48 hrs by Annexin V-FITC/PI staining based flow cytometry analysis (Rvb= 1.47%). The class given is functional.
In experiment [3] the test system is A549. Nature of the experiment: Induction of apoptosis in human A549 cells assessed as dead cells at 2.5 uM measured after 48 hrs by Annexin V-FITC/PI staining based flow cytometry analysis (Rvb= 0.67%). The class given is functional. A general note: In flow cytometry, cells or beads pass a laser one at a time.
The test system of experiment [4] is A549. Nature of the experiment: Induction of apoptosis in human A549 cells assessed as early apoptotic cells at 5 uM measured after 48 hrs by Annexin V-FITC/PI staining based flow cytometry analysis (Rvb= 0.72%). The format is functional.
Experiment [5] concerns A549. The experiment is described as follows: Induction of apoptosis in human A549 cells assessed as activation of executioner caspase-3 at 2.5 to 10 uM measured after 48 hrs by western blot analysis. The conditions noted are these: dose 2.5-10 µM. The format is functional, cell-based. For orientation: In western blotting, separated proteins are transferred to a membrane and probed.

In experiment [6] the test system is A549. The experiment is described as follows: Induction of cell cycle arrest in human A549 cells assessed as increase in number of cells accumulation at G2/M phase at 2.5 uM measured after 48 hrs by flow cytometry analysis (Rvb= 16.72%). The format is functional.
Experiment [7] deals with A549. The experiment is described as follows: Induction of cell cycle arrest in human A549 cells assessed as accumulation of cells at S phase at 2.5 uM measured after 48 hrs by flow cytometry analysis (Rvb= 24.5%). The format is functional.
Experiment [8] deals with A549. The experiment is described as follows: Induction of cell cycle arrest in human A549 cells assessed as accumulation of cells at S phase at 5 uM measured after 48 hrs by flow cytometry analysis (Rvb= 24.5%). The format is functional.
Experiment [9] has as its system A549. Nature of the experiment: Induction of cell cycle arrest in human A549 cells assessed as accumulation of cells at S phase at 10 uM measured after 48 hrs by flow cytometry analysis (Rvb= 24.5%). The format is functional.
The test system of another experiment is HUVEC. The experiment is described as follows: Inhibition of cell migration in HUVEC cells assessed as decrease in number of migrated endothelial cells at 0.25 to 1 uM measured after 48 hrs by crystal violet staining based transwell assay. The format is functional. As to conditions: Homo sapiens, dose 0.25-1 µM.
Experiment [10] concerns A549. The experiment is described as follows: Inhibition of cell migration in human A549 cells assessed as decrease in wound healing rate at 0.5 to 2 uM measured after 48 hrs by wound healing assay. The class given is functional, cell-based. The conditions noted are these: dose 0.5-2 µM.
Experiment [11] relates to A549. The experiment is described as follows: Antiinvasive activity in human A549 cells assessed as decrease in number of migrated A549 cells at 0.5 to 2 uM measured after 48 hrs by crystal violet staining based transwell assay. The conditions noted are these: dose 0.5-2 µM. The class given is functional, cell-based.
The species entered for another experiment is Danio rerio. Nature of the experiment: Antiangiogenic activity in transgenic Tg(flk:EGFP) zebra fish embryos assessed as reduction in length of intersegmental vessels measured at 30 hrs post fertilization by confocal fluorescence microscopy analysis. The format is functional, organism-based. As to conditions: dose 1-4 µM.
The target in experiment [12] is T1, Tubulin (Homo sapiens). Nature of the experiment: Displacement of [3H]colchicine binding to tubulin (unknown origin). The format is protein-complex assay.

The structures appear in SMILES notation. Calls of active or inactive are those of the source. The calls are words filed in the database; no cut-off is given here.

For the compound `COc1ccc2c(c1)-c1occ(C)c1C(=O)C2=O`, the IC50 in the experiment on HepG2 is 2 µM; in the experiment on U-937 it was 2.77 µM. The inhibition result on Tubulin (Homo sapiens) [1], with HUVEC and in the experiment on A549 [10] was “Active” each time. The Activity in the experiment on A549 [2] was found to be 3.28%; in the experiment on A549 [3], 0.68%; with A549 [4] it was 10.3%; in the experiment with A549 [6], 17.41%; in the experiment with A549 [7], 21.27%; in the experiment with A549 [8] it was 25.26%. The results for the Activity with A549 [9] and in the experiment listed under Danio rerio were 13.48% and “Dose-Dependent Effect”, respectively. Moreover, the result with A549 [5], in the experiment with A549 [11] and on Tubulin (Homo sapiens) [12] was Active.
